Source: patent publication US20260042854A1, “ANTI-GLP-1R ANTIBODIES AND USES THEREOF” (SCIWIND BIOSCIENCES USA CO., LTD, priority 2022, published 2026)

Legend:
C57BL/6 mice = assay: IPGTT in C57BL/6 mice (exogenous GLP-1 added); type: in vivo, mouse; details: GLP-1 25.0 nmol/kg i.p. with glucose
Experimental: 7-9-week-old male C57BL/6 mice (22-26 g) were assigned into 5 groups, with 5 mice in each group, and the mice in each group were treated according to the scheme shown in Table 6. The antibody treatment groups were given a single subcutaneous injection, and were fasted for 18 hours after the administration. […] The blood glucose levels of the mice before (0 min) and 15 min, 30 min. 60 min, 90 min, 120 min and 180 min after the administration of glucose were measured with blood glucose meter. The AUCs of the blood glucose-time curves of each mouse from 0 to 180 min were calculated with GraphPad Prism 9. The blood glucose levels and the AUCs were shown in Mean±SEM and the differences among groups were compared. Statistical differences were analyzed with One-way ANOVA. […] The significance markers were not shown in the line chart since they would overlap and be difficult to distinguish.

humanized GLP-1R mice = assay: IPGTT in humanized GLP-1R mice (exogenous GLP-1 added); type: in vivo, mouse; details: GLP-1 25 nmol/kg i.p. with glucose
Experimental: 10-week-old female humanized GLP-1R mice (25-28 g, Shanghai Model Organisms Center Inc.) were assigned into 5 groups, with 5 mice in each group, and each group was treated according to the scheme in Table 6. The antibody treatment groups were subcutaneously injected with antibody, while the other groups were subcutaneously injected with vehicle (PBS) once a week for 2 consecutive weeks. IPGTTs were performed one day after the administration. The first subcutaneous administration of the antibody was on Day 0, and the second subcutaneous administration was on Day 7.
The blood glucose levels of the mice before (0 min) and 15 min, 30 min, 60 min, 90 min, 120 min and 180 min after the administration of glucose were measured with blood glucose meter. The AUCs of the blood glucose-time curves of each mouse from 0 to 180 min were calculated with GraphPad Prism 9. […] Statistical differences were analyzed with One-way ANOVA. […]
10-week-old female humanized GLP-1R mice (25-28 g) were assigned into 5 groups, with 5 mice in each group, and each group was treated according to the scheme in Table 10. […] The blood glucose levels of the mice before (0 min) and 15 min, 30 min, 60 min, 90 min, 120 min and 180 min after the administration of glucose were measured with blood glucose meter. The AUCs of the blood glucose-time curves of each mouse were calculated with GraphPad Prism 9. […]

Mouse GLP-1R = target: T1, Mouse GLP-1R (Mus musculus, UniProt O35659); assay: cAMP HTRF antagonism assay in HEK293 transfected with mouse GLP-1R; type: cell-based
T1 construct: expressed in transfected cells; host or cells: HEK293 (ATCC, CRL-1573)
T1 sequence (O35659 22-463): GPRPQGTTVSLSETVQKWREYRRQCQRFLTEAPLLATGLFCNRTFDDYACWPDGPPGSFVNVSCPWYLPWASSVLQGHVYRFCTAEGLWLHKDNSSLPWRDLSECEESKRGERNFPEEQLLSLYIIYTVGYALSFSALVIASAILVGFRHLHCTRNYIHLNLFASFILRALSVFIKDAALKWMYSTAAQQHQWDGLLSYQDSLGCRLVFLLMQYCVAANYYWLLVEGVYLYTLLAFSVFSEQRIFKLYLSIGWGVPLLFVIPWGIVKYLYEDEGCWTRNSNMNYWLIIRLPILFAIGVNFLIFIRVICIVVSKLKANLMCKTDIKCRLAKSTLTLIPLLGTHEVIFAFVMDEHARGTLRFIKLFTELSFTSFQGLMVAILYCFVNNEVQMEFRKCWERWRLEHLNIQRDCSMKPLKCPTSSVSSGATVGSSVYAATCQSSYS
Experimental: HEK293 cells (ATCC, cat no. CRL-1573) were transfected with GLP-1R_pcDNA3.1/G418 (+) plasmids which can transcribe the mRNA of human (NM_002062.5), monkey (JN033215.1) and mouse (NM_021332.2) GLP-1R polypeptide. […] The plate was further incubated at 37° C. for 120 minutes. Finally, the CAMP level was measured with cAMP HTRF kit (Cisbio, 62AM4PEB). […] The data were analyzed by four-parameter curve fitting with GraphPad Prism 9, and IC50 was calculated.

| Substance | effect of GLP-1 on blood glucose levels (in words) (C57BL/6 mice) | effect of GLP-1 on blood glucose levels (in words) (humanized GLP-1R mice) | antagonism of activation of mouse GLP-1R by GLP-1 (in words) (Mouse GLP-1R) |
| --- | --- | --- | --- |
| GLP-1: native GLP-1 (7-37aa, R&D Systems, cat no. 5374/1), agonist used to activate GLP-1R (HAEGTFTSDVSSYLEGQAAKEFIAWLVKGRG; Glucagon-like peptide 1(7-37); UniProt P01275 98-128, looked up) [reference compound] | could lower blood glucose levels | can effectively lower the blood glucose levels |  |
| exendin 9-39 [Avexitide, reference compound] |  |  | does antagonize the activation of mouse GLP-1R by GLP-1 |
